Laboratory results from paper PMC10222323, “Novel Biotinylated Cu(II)-Phenanthroline Complexes: 2D and 3D Cytotoxic Activity and Mechanistic Insight” (Molecules, 2023).
Like-named read-outs stand apart in the source and are kept apart here.

Assays:
[1] = tested on: U1285 (lung) cancer cells; assay: MTT cytotoxicity test, 72 h, U1285; format: cell-based, human; settings: mean ± S.D., read-out: IC50 U-1285
Protocol: (§1) The in vitro anticancer potential of the newly developed complexes and of the ligands has been tested on six different cancer cell lines including PSN-1 (pancreatic), HCT-15 (colorectal with low sensitivity for cisplatin), 2008 (ovarian), A431 (cervical), MDA-MB-231 (breast), and U1285 (lung) cancer cells. For comparison purposes, cisplatin efficacy was assessed under the same experimental conditions.
(§2) Tested compounds were dissolved in DMSO and added to the cell-growth medium to a final solvent concentration of 0.5%, which is well reported to not have cytotoxic effects on cell viability. Cisplatin (Sigma Chemical Co., St. Louis, MO, USA) was dissolved in a physiologic solution (0.9% sodium chloride).
(§3) The growth inhibitory effect toward the tumour cell lines was evaluated by the MTT test as previously described.

[2] = tested on: A431 (cervical) cancer cells; assay: MTT cytotoxicity test, 72 h, A431; format: cell-based, human
Protocol: as §1, §2
(§4) Human colon (HCT-15), pancreatic (PSN-1), and breast (MDA-MB-231) carcinoma-cell lines were obtained from the American Type Culture Collection (ATCC, Rockville, MD). Human cervical carcinoma (A431) cells were kindly provided by Prof. F. Zunino (Division of Experimental Oncology B, Istituto Nazionale dei Tumori, Milan). Human ovarian carcinoma (2008) cells and their cisplatin-resistant counterpart (C13*) were kindly provided by Prof. G. Marverti (Dipartimento di Scienze Biomediche, Università di Modena University, Italy). Cell lines were cultured in RPMI-1640 or DMEM medium (Euroclone) added with 10% fetal calf serum (Euroclone, Milan, Italy), antibiotics (50 units per mL penicillin, and 50 μg mL^−1 streptomycin), and 2 mM L-glutamine.
as §3

[3] = tested on: MDA-MB-231 (breast) cancer cells; assay: MTT cytotoxicity test, 72 h, MDA-MB-231; format: cell-based, human
Protocol: as §1, §2, §4, §3

[4] = tested on: C13* ovarian cancer cells (cisplatin-resistant); assay: MTT cytotoxicity test, 72 h, cisplatin-resistant C13*; format: cell-based, human; settings: for R.F. (resistance factor): RF = IC50 resistant (C13*)/IC50 parental cells (2008); for IC50: cisplatin-resistant cells, 72 h, MTT test
Protocol: (§5) Table 2 reported the IC50 values of the complexes against two types of ovarian cancer cells, one sensitive (2008) and one resistant to cisplatin (C13*). […] The resistance factor (R.F., the ratio among IC50 values obtained in resistant C13*cells and those calculated in the sensitive 2008 ones) calculated for all tested complexes resulted to be ≤2 (R.F. for cisplatin 11.1), strongly confirming the ability of the complexes to bypass cisplatin resistance.
as §2, §4, §3

[5] = tested on: HCT-15 (colorectal with low sensitivity for cisplatin) cancer cells; assay: MTT cytotoxicity test, 72 h, HCT-15; format: cell-based, human
Protocol: as §1, §2, §4, §3

[6] = tested on: noncancerous CHO cells; assay: Cytotoxicity against noncancerous CHO cells; format: cell-based; settings: for IC50: noncancerous cells; for S.I. (selectivity index): average IC50 toward normal cells divided by the average IC50 for the malignant cells
Text: In order to preliminarily assess the possible toxic effect on noncancerous cells, we also evaluated the cytotoxic potential of the newly developed Cu(II) complexes against noncancerous CHO cells (Table 3). For all tested complexes, calculated IC50 values were higher than those obtained (on average) against tumour cells, thus indicating for this class of metal complexes a slightly preferential cytotoxicity against cancer cells, as attested by the calculated selectivity index values (SI = the quotient of the average IC50 toward normal cells divided by the average IC50 for the malignant cells).
as §3

[7] = tested on: human pancreatic PSN-1 cancer-cell spheroids; assay: 3D spheroid cytotoxicity, APH assay, 72 h; format: cell-based; settings: 3D spheroids, 72 h, APH test
Protocol: The cancer spheroids were treated with tested complexes for 72 h, and the cell viability was estimated by means of a modified acid phosphatase (APH) assay.
Spheroid cultures were performed by seeding 2.5 × 10^3 PSN-1 cancer cells/well in spheroid-suitable tissue culture untreated 96-well plates (Greiner Bio-one, Kremsmünster, Austria) in RPMI-1640 cell culture medium without phenol red (Sigma Chemical Co., St. Louis, MO, USA) containing 10% fetal calf serum and supplemented with 20% methyl cellulose stock solution.
An established APH-modified assay was used to detect the cytotoxicity profile in 3D spheroids, as previously described. IC50 values were calculated using a 4-PL model.

[8] = tested on: 2008 (ovarian) cancer cells; assay: MTT cytotoxicity test, 72 h, 2008; format: cell-based, human
Protocol: as §1, §5, §2, §4, §3

[9] = tested on: PSN-1 (pancreatic) cancer cells; assay: MTT cytotoxicity test, 72 h, PSN-1; format: cell-based, human
Protocol: as §1, §2, §4, §3

[10] = tested on: six different cancer cell lines; assay: MTT cytotoxicity, average over the cancer cell line panel; format: cell-based, human; settings: for cytotoxic activity of ligands (in words): compared with the complexes
Protocol: as §1
Due to note, all the complexes were very effective in the MDA-MB-231 cell line, which overexpress the SMVT (sodium-dependent multivitamin transporter) receptor, which is well known to be involved in the intracellular translocation of biotin [24].
as §3

[11] = tested on: DNA; assay: Ethidium bromide displacement assay; format: binding; settings: EtBr displacement
Protocol: A number of research studies were performed on the elucidation of the mechanism of action of copper complexes in the past three decades. Despite several different molecular targets having been proposed for copper(II) complexes, DNA still represents one of the most substantiated when considering diamine ligands. On this basis, we thought it of interest to evaluate the ability of tested complexes to interact with DNA, both at molecular and cellular levels. An ethidium bromide (EB) displacement assay was used to understand if the complexes interact with the DNA at a molecular level. […] These values are very much in line with what was previously seen by us and also very close to the reported literature values of 2.60 × 10^7 M(bp^−1) and 3.04 × 10^7 M(bp^−1) for the bis complexes of [Cu(phen)2]^2+ and [Cu(DPQ)2]^2+ reported by Molphy et al.. […] It is largely possible that the presence of the 1,10-phenanthroline scaffold on compounds 3 and 4 is contributing to the increased displacement of the EtBr (probably by intercalation) and leading to a more noticeable decrease in the fluorescence.
EtBr displacement assays were performed in 10 mM phosphate buffer solution (pH 7.4) as described by Boger et al. The binding values were calculated using the % relative decrease of fluorescence at 50% and the equation below. (1) EEBEtBr/compound50%FI

[12] = tested on: DNA; design: method as in earlier work; settings: reported literature values; ref 26 (Molphy et al.); cited from earlier work
[13] = tested on: MDA-MB-231 cells; settings: 24 h, 2 and 3 μM
Protocol: The ability to enter cancer cells is a very important factor to determine the biological activity of metal-based compounds. Consequently, with the aim of correlating the antiproliferative activity elicited by all the newly developed complexes and their accumulation profiles into cancer cells, the Cu content was evaluated in the SMVT overexpressing MDA-MB-231 cells. Uptake profiles were determined by treating cancer cells for 24 h with two concentrations (2 and 3 μM) of tested complexes.
MDA-MB-231 cells (2.5 × 10^6) were seeded in 75 cm^2 flasks in a growth medium (20 mL). Following 24 h, cells were treated for 24 h with tested complexes and samples processed as previously described.
Figure 2 Cellular uptake of complexes 1–4 in drug-treated MDA-MB-231 human breast cancer cells. Cells were incubated for 24 h with […] of tested complexes. The amount of cellular Cu was estimated by GF-AAS. Error bars are S.D.

[14] = Table 2, cisplatin-sensitive parental cells
[15] = Homo sapiens, Table 1, mean ± S.D.

Compound	IC50 [1] [µM]	IC50 ([2]; mean ± S.D.) [µM]	IC50 ([3]; mean ± S.D.) [µM]	R.F. (resistance factor) [4]	IC50 [4] [µM]	IC50 ([5]; mean ± S.D.) [µM]	IC50 [6] [µM]	IC50 ([8]; Table 1, mean ± S.D.) [µM]	IC50 [8, 14] [µM]	IC50 ([9]; mean ± S.D.) [µM]	also measured
N.N.[Cl][Pt][Cl] [Cisplatin, cisplatin, reference compound]	2.1 ± 0.9	2.1 ± 0.9	30.5 ± 2.6	11.1	24.1 ± 3	13.9 ± 1.7	24.1 ± 3	2.2 ± 1.4	2.2 ± 1.4	12.1 ± 2.9	IC50 [7]: 52.6 ± 3.8 µM
O=C(CCCC[C@@H]1SC[C@@H]2NC(=O)N[C@@H]21)N/N=C1\C(=O)c2cccnc2-c2ncccc21 [B, Biotin-Phen]	–	–	–	–	–	–	–	–	–	–	IC50 ([1]; Homo sapiens): 28.1 ± 2.77 µM; cytotoxic activity of ligands (in words) [10]: did not show activity comparable to the complexes; IC50 [8, 15]: 21.5 ± 0.72 µM
O=C(CCCC[C@@H]1SC[C@@H]2NC(=O)N[C@@H]21)NN=C1c2ccc[n+]3c2-c2c1ccc[n+]2[Cu-2]3([Cl])[Cl] [Complex 1, [Cu(dafone-biotin)Cl2]]	5.9 ± 0.5	7.2 ± 0.6	2.1 ± 0.4	0.4	2 ± 0.8	0.4 ± 0.1	13.1 ± 0.9	4.5 ± 0.6	4.5 ± 0.6	0.6 ± 0.2	S.I. (selectivity index) [6]: 3.9; IC50 ([10]; 2D assays, average over the cancer cell lines of Table 1): 3.4 µM; fluorescence quenching (in words) [11]: very small quenching
c1cc2c3nccnc3c3ccc[n+]4c3c2[n+](c1)[Cu-2]41[n+]2cccc3c4nccnc4c4ccc[n+]1c4c32 [[Cu(DPQ)2]^2+]	–	–	–	–	–	–	–	–	–	–	binding constant (literature) [12]: 3.04 × 10^7 M(bp^−1)
[Cu+2].c1cnc2c(c1)ccc1cccnc12.c1cnc2c(c1)ccc1cccnc12 [[Cu(phen)2]^2+, copper bis-phenanthroline [Cu(phen)2]^2+]	–	–	–	–	–	–	–	–	–	–	binding constant (literature) [12]: 2.60 × 10^7 M(bp^−1)
O=C(CCCC[C@@H]1SC[C@@H]2NC(=O)N[C@@H]21)NN=C1c2cccnc2-c2ncccc21 [A, Biotin-Dafone]	–	–	–	–	–	–	–	–	–	–	IC50 ([1]; Homo sapiens): > 50 µM; IC50 ([2]; Homo sapiens, A-431, mean ± S.D.): > 50 µM; IC50 ([3]; Homo sapiens, MDA-MB-231, mean ± S.D.): > 50 µM; IC50 ([5]; Homo sapiens, HCT-15, mean ± S.D.): > 50 µM; cytotoxic activity of ligands (in words) [10]: did not show activity comparable to the complexes; IC50 [8, 15]: > 50 µM; IC50 ([9]; Homo sapiens, PSN1, mean ± S.D.): > 50 µM
[Cu(phen)(dafone-biotin)](NO3)2 [Complex 3]	3 ± 0.3	0.9 ± 0.2	1.4 ± 0.4	0.7	2.5 ± 0.2	1.8 ± 0.2	2.1 ± 0.8	3.3 ± 0.1	3.3 ± 0.1	0.7 ± 0.2	Cu intracellular content (uptake) [13]: most internalised into cancer cells; S.I. (selectivity index) [6]: 1.1; fluorescence quenching (in words) [11]: highest quenching values; relative fluorescence decrease [11]: greater than 50%; binding constant ([11]; 10 mM phosphate buffer pH 7.4, from 50% fluorescence decrease): 2.53 × 10^7 M(bp^−1)
